Measurements taken from patent US12064420B2, “Tie-2 activators targeting the Schlemm's canal” (EyePoint Pharmaceuticals, Inc., priority 2019, dated 2024).

Columns and labels:
[1] = test system: ocular normotensive human patients with diabetic eye disease; experiment: Phase 2 trial: IOP after subcutaneous Compound 1 alone or with intravitreal ranibizumab, diabetic macular edema; type: in vivo; details: for Week 4 subject-level IOP change from BL, mean (SD) / Week 4 subject-level IOP, mean (SD) / Week 8 subject-level IOP change from BL, mean (SD) / Week 8 subject-level IOP, mean (SD) / Week 12 subject-level IOP change from BL, mean (SD) / Week 12 subject-level IOP, mean (SD): average of study eye and fellow eye
Experimental: IOP in patients were measured using a double-masked, parallel-group designed to assess the effects of subcutaneous (SC) Compound 1 (sodium salt) alone, or as an adjunct to intravitreal ranibizumab trial. 144 human subjects with diabetic retinopathy complicated by center-involved diabetic macular edema (DME) were randomized to 3 months of one of 3 treatments: 1) Compound 1 (15 mg) SC twice daily (BID) plus sham monthly intravitreal injection (IVT); 2) Compound 1 SC BID plus ranibizumab (0.3 mg) monthly IVT; and 3) Placebo SC BID+ranibizumab IVT. At baseline, mean age was 61.3±1.3 years; 59% of subjects were male; 82.6% had Type 2 diabetes; mean HBA1c was 7.5%±1.3%; mean best corrected visual acuity was 60.2 ETDRS letters (Snellen 20/63); and mean IOP was 15.7 mmHg±3.4. Ophthalmic safety assessments were performed at baseline and monthly during the 3-month treatment period including a single IOP measurement by applanation tonometry in both the study eye and the fellow eye at each time point. By protocol, all patients had baseline IOP<24 mmHg (ocular normotensive).
In the pre-specified safety analysis, change from baseline IOP was analyzed using a t-test (null hypothesis 0 change from baseline). The level of significance was set at 0.05. A post hoc analysis of the subject level IOP measure was the change from baseline in the average over both eyes within a subject for each timepoint. Statistical testing of each timepoint was completed using ANCOVA with baseline IOP (averaged over both eyes within a subject) as covariate. Additionally, statistical testing averaging across all timepoints was completed using a mixed-model repeated measures ANCOVA. The level of significance was set at 0.05.

Tie-2 = Tie-2 phosphorylation in Schlemm's canal, whole mount immunofluorescence; type: in vivo, mouse; details: 1 hour after single topical ocular administration of 4% eye drops
Experimental: VE-PTP expression was assessed in the endothelium of SC in VE-PTP knock-in reporter mice expressing a nuclear-localizing β-galactosidase from the endogenous VE-PTP promoter (VE-PTP+/mut). C57BL/6JRj mice were also used in the experiments as control animals. Mice were anaesthetized using ketamine (125 mg/kg) and xylazine (12.5 mg/kg). 10 μL of Compound 1 eye drop solution (4% Compound 1) or vehicle was applied to each eye. Mice were euthanized 1 hour following dosing, and the eyes were processed for immunofluorescence analysis to detect Tie-2 phosphorylation. […]
To evaluate VE-PTP mediated signaling, tyrosine phosphorylation and activation of Tie-2 in SC following VE-PTP inhibition was assessed one hour following a single topical ocular administration of Compound 1. […]

C57B16 mice = experiment: Schlemm's canal area in mice (PECAM-1 staining); type: in vivo, mouse; details: 4% eye drops (5 μL) BID for 4 weeks, 4-week old mice
Experimental: Prior to application of eye drops, mice were anaesthetized using an isoflurane evaporator. Whole mounts of corneas were stained for PECAM-1 (FIG. 6A) and SC areas were measured (FIG. 6B). As depicted in FIG. 6A, 20× fields shown represent an area of […]. Images were captured as Z stacks with a step size of 0.89 μm and a pinhole of 1 airy unit, and are shown as maximum intensity projections. For quantification (FIG. 6B), SC area was measured in sixteen 20× images per condition for 4 eyes of 2 mice; *p≤0.05. Treatment with Compound 1 enhanced SC area by about 12.2% (±4.7%; p=0.022) with topical ocular Compound 1 treatment compared to vehicle.

[2] = week 12, listed as All Compound 1
[3] = week 12, listed as Compound 1 + Sham

SMILES: COC(=O)N[C@@H](Cc1ccccc1)C(=O)N[C@@H](Cc1ccc(NS(=O)(=O)O)cc1)c1csc(-c2cccs2)n1 [Compound 1, 4-{(S)-2-[(S)-2-(Methoxycarbonylamino)-3-phenylpropanamido]-2-[2-(thiophen-2-yl)thiazol-4-yl]ethyl}phenylsulfamic acid]
- Week 4 subject-level IOP change from BL, mean (SD) ([1]; listed as All Compound 1): −1.2 (2.92) mmHg
- Week 4 subject-level IOP, mean (SD) ([1]; listed as All Compound 1): 14.5 (2.92) mmHg
- Week 4 subject-level IOP change from BL, mean (SD) ([1]; listed as Compound 1 + Sham): −0.8 (3.14) mmHg
- Week 4 subject-level IOP, mean (SD) ([1]; listed as Compound 1 + Sham): 14.7 (2.88) mmHg
- Week 8 subject-level IOP change from BL, mean (SD) ([1]; listed as All Compound 1): −1.3 (3.17) mmHg
- Week 8 subject-level IOP, mean (SD) ([1]; listed as All Compound 1): 14.5 (3.31) mmHg
- Week 8 subject-level IOP change from BL, mean (SD) ([1]; listed as Compound 1 + Sham): −1.1 (3.25) mmHg
- Week 8 subject-level IOP, mean (SD) ([1]; listed as Compound 1 + Sham): 14.4 (3.26) mmHg
- Week 12 subject-level IOP change from BL, mean (SD) [1, 2]: −1.3 (2.93) mmHg
- Week 12 subject-level IOP, mean (SD) [1, 2]: 14.5 (3.31) mmHg
- Week 12 subject-level IOP change from BL, mean (SD) [1, 3]: −1.4 (2.98) mmHg
- Week 12 subject-level IOP, mean (SD) [1, 3]: 14.1 (3.36) mmHg
- Week 4 IOP change from BL, mean (SD) ([1]; fellow eye (FE)): −0.8 (3.36) mmHg
- Week 8 IOP change from BL, mean (SD) ([1]; fellow eye (FE)): −1.1 (3.58) mmHg
- Week 12 IOP change from BL, mean (SD) ([1]; fellow eye (FE), week 12): −1.4 (3.29) mmHg
- Week 12 IOP, mean (SD) ([1]; fellow eye (FE), week 12): 14.0 (3.41) mmHg
- Week 4 IOP change from BL, mean (SD) ([1]; study eye (SE)): −0.8 (3.34) mmHg
- Week 8 IOP change from BL, mean (SD) ([1]; study eye (SE)): −1.1 (3.37) mmHg
- Week 12 IOP change from BL, mean (SD) ([1]; study eye (SE), week 12): −1.4 (3.16) mmHg
- staining of Schlemm's canal for tyrosine phosphorylated Tie-2 (pY992-Tie-2) (Tie-2): enhanced
- enhancement of Schlemm's canal area compared to vehicle (C57B16 mice): about 12.2%
